In patent US10858331B1, “Ester nitrates derivatives of aromatic aldehydes with multiple pharmalogic properties to treat sickle cell disease” (VIRGINIA COMMONWEALTH UNIVERSITY, priority 2013, dated 2020):

Columns and labels:
[1] = test system: SS cells; test: In vitro RBC anti-sickling (morphological) study with SS cells; assay type: cell-based, human
Protocol: In vitro RBC morphological (anti-sickling) analysis was conducted at the Children's Hospital of Philadelphia (by Drs. Toshio Asakura and Osheiza Abdulmalik). The anti-sickling effects of 5HMF, TD-7 HCl, TD-7, TD-1, and TD-7-1 were studied by incubating suspensions of SS cells in the absence or presence of three different concentrations of the effectors in the presence of air for 1 h at 37° C. followed by incubation under 4% oxygen at 37° C. for 5 h. All samples were pre-incubated for 1 h with various compounds and then incubated under 4% O2 for 5 h. […] Table 5 represents the concentrations of the effectors along with the % inhibition of sickling cells. The hemolysates that had been prepared from SS cells after incubation with test compounds were also subjected to cation-exchange HPLC as previously reported (Abdulmalik et al., 2005).

[2] = target: T1, Hb (Homo sapiens, UniProt P68871+P69905); test: Oxygen equilibrium curve (OEC) study with normal whole blood (AA); assay type: cell-based; conditions: 2 mM compound, 1.5 h incubation; for P50: 37° C.; for ΔP50: versus DMSO control
T1 construct: normal whole blood (AA); from tissue; host or cells: normal whole blood (AA), red blood cells
T1 sequence (P69905 2-142 limits assumed): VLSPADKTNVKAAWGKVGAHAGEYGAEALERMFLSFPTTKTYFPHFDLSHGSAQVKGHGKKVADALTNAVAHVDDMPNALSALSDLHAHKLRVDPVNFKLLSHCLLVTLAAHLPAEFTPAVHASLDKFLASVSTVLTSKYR
T1 sequence (P68871 2-147 limits assumed): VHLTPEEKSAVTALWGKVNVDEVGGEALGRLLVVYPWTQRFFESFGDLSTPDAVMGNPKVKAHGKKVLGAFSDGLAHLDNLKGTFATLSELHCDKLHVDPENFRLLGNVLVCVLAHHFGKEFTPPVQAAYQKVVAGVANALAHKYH
Protocol: (§1) Studies were performed on compounds TD-7, TD-7-1, TD-8, TD-8-1, TD-9 and TD-9-1 using 100 mM stock solution in DMSO and normal whole blood (AA). TD-7, TD-8 and TD-9 are compounds with a hydroxymethyl group on the pyridine ring, while TD-7-1, TD-8-1 and TD-9-1 are the respective nitrate ester derivatives. The whole blood samples had hematocrit values ranging from 29-36%, and cell-free purified Hb of 10-12 g/dL in the absence or presence of effectors solubilized in DMSO at 2 mM or in some cases with varying compound concentration. The blood samples were incubated in an IL 237 tonometer (Instrumentation Laboratories, Inc., Lexington, Mass.) for about 5-7 min at 37° C. against a gas mixture containing O2 concentrations of 0.804%, 2.935% and 5.528% and allowed to equilibrate at O2 tensions of 6, 20 and 40 mmHg. After equilibration, the sample was removed via syringe and aspirated into a ABL 700 series table top automated blood gas analyzer (Radiometer America, Inc., Westlake, Ohio) to determine total hemoglobin (tHb), hematocrit (Hct), pH, pCO2, partial pressure of oxygen (pO2), and the Hb oxygen saturation values (sO2). Similar procedures were followed for concentration and time dependence studies. The measured values of pO2 and sO2 at each oxygen saturation level were then subjected to a non-linear regression analysis using the program Scientist (Micromath, Salt Lake City, Utah) with the following equation: […]
This equation was used to calculate P50 and Hill coefficient (N) values. Corresponding control experiments without the test compound (P50control) but containing DMSO were also performed.

[3] = target: T2, cell-free Hb (Homo sapiens, UniProt P68871+P69905); test: OEC study with normal cell-free Hb; assay type: biochemical; conditions: cell-free Hb 12 mg/mL, 2 mM compound; for N (Hill coefficient) / P50: n = 1; for ΔP50: versus control P50 12.5
T2 construct: Hemoglobin was prepared from centrifuging human blood; from tissue; host or cells: human blood (red cells lysed, Hb purified on DEAE sephacel)
T2 sequence (P69905 2-142 limits assumed): as the sequence (P69905 2-142 limits assumed) above
T2 sequence (P68871 2-147 limits assumed): as the sequence (P68871 2-147 limits assumed) above
Protocol: as §1
Hemoglobin was prepared from centrifuging human blood at 2500 rpms for 20 min at 4° C. The supernatant solution, debris and plasma were discarded from the centrifuge bottles, leaving behind RBCs. The RBCs were washed thrice with an excess volume of 0.9% NaCl, and once with 1.0% NaCl, each time centrifuging and discarding the supernatant solution. The RBCs were pooled together into a chilled flask and hemolyzed to free Hb by adding 1-2 volume excess of 50 mM Tris buffer, pH 8.6 (containing EDTA). The mixture was allowed to stand in ice for 30 min with occasional stirring. The Hb solution was centrifuged at 10,000 rpm for 2 h at 4° C. The supernatant Hb solution was pooled into a chilled flask and NaCl (40-60 mg/mL Hb solution) was slowly added with stirring. Hemoglobin solution was centrifuged at 10,000 rpm for 2 h at 4° C. to remove any cell stroma remnants. The clear supernatant Hb solution was pooled into a chilled flask and the “syrupy” pellet was discarded. Hemoglobin solution was dialyzed against 50 mM Tris buffer, pH 8.6 (containing EDTA) at 4° C. to remove NaCl and/or other low molecular weight impurities. Strips of standard cellulose dialysis tubing that had been washed 3-4 times and boiled for 10 min in deionized water were used for dialysis. The dialyzed Hb was further purified by ion-exchange chromatography using DEAE sephacel to exclude 2,3-DPG. The resin was equilibrated with 50 mM Tris buffer, pH 8.6, and the Hb solution was run through the column with 50 mM Tris buffer, pH 8.6 (containing EDTA). The pooled fractions were concentrated with an Amicon stirred cell (Amicon, Model 402), to a final HbA concentration of about 80-120 mg/mL. Concentrated HbA was stored at −80° C.
As a result of the low left-shifting activities of TD-8 and TD-9, as well as the nitrate ester derivatives, we further evaluated the activity of the compounds TD-1, TD-7, TD-7-1, TD-8, and TD-9 using cell-free Hb (devoid of any proteins, enzymes, plasma and cell membranes) to determine whether plasma protein or RBC membrane could have any effect on compound biological activity. Previous studies have shown limited effect of plasma protein and RBC membrane on SHMF activity. The same tonometry procedure used on whole blood was used with the cell-free hemoglobin using 2 mM compound and 12 mg/mL of Hb.

[4] = NO release study (Griess assay) in presence of L-cysteine; conditions: for NO2− release after 1 hour / NO2− release after 16 hours: 2 mM compound solution mixed with 36 mM L-cysteine, phosphate buffer pH 7.4, 37° C., anaerobic; for NO release in the form of NO2− (rank among the compounds): comparison of the four nitrate esters
Protocol: Griess assay was performed on the left-shifting nitrate ester compounds (TD-1, […], TD-8-1 and, TD-9-1) to measure the release of NO. Griess assay is a colorimetric assay, used for detection of NO in the form of nitrite ions (NO2^−). NO released in solution is highly unstable, with a half-life of 1 to 30 s. It gets rapidly oxidized to NO2^− which is detected by the Griess reagent. In this method, NO2^−, first reacts with the sulfanilamide present in the reagent to form a transient diazonium salt. […] Sodium nitrite (NaNO2) was used as a standard for the Griess assay. NaNO2 samples in deionized water were prepared of concentrations within the linear range of the assay (1-100 μM). The samples were incubated for 30 min at 37° C., after which Griess reagent was added and absorbance was measured at 540 nm. The measured absorbances were used to obtain a standard curve (FIG. 3). For the measurement of NO2^− release for all the test compounds (TD-1, TD-7-1, TD-8-1 and TD-9-1), the absorbances were extrapolated from the standard NaNO2 curve.
In this assay, a solution of the test compound (1 mL of a 2 mM solution in 0.1 M phosphate buffer (pH 7.4)) was mixed thoroughly with a freshly prepared solution of L-cysteine (1 mL of a 36 mM solution in 0.1 M phosphate buffer, pH 7.4), and incubated at 37° C., for 1 and 16 h under anaerobic conditions. After exposure to air for 10 min at 25° C., an aliquot of the Griess reagent (1 mL) [freshly prepared by mixing equal volumes of 1.0% sulfanilamide (prepared and stored in aqueous 5% phosphoric acid) and 0.1% N-naphthylethylenediamine dihydrochloride in water] was added to an equal volume (1 mL) of each incubation solution after mixing. After 10 min, absorbance was measured at 540 nm using a Hewlett Packard (Agilent) 8453 UV-visible Spectroscopy. NaNO2 solutions of 1-100 μM concentrations were used to prepare a standard nitrite curve of absorbance […] versus concentration (μM). The NO released (quantitated as NO2^− release in μM) was calculated from the standard nitrite curve by extrapolation of the absorbance. […]

| SMILES | inhibition at 500 µM ([1]; Homo sapiens, 0.5 mM, SS cells, 1 h air then 4% O2, 37° C., 5 h, read-out: Inhibition of sickled cells) | inhibition at 1000 µM ([1]; Homo sapiens, 1.0 mM, SS cells, 1 h air then 4% O2, 37° C., 5 h, read-out: Inhibition of sickled cells) | inhibition at 2000 µM ([1]; Homo sapiens, 2.0 mM, SS cells, 1 h air then 4% O2, 37° C., 5 h, read-out: Inhibition of sickled cells) | Hemolysis of RBC ([1]; at higher drug concentrations) | N (Hill coefficient) [2] | P50 [2] | ΔP50 [2] | N (Hill coefficient) [3] | P50 [3] | ΔP50 [3] | NO2− release after 1 hour [4] | NO2− release after 16 hours [4] | Anti-sickling effect (in words) ([1]; SS cells, 4% O2, 5 h, concentration not given, in comparison with 5HMF) | NO release in the form of NO2− (rank among the compounds) [4] |
| --- | --- | --- | --- | --- | --- | --- | --- | --- | --- | --- | --- | --- | --- | --- |
| COc1ccc(OCc2cccc(CO[N+](=O)[O-])n2)c(C=O)c1 [TD-7-1, (6-((2-Formyl-4-methoxyphenoxy)methyl)pyridin-2-yl)methyl nitrate] | 72% | 100% | 100% | hemolyzed the RBC at higher drug concentrations | 1.7 ± 0.1^c† | 23.4 ± 1.6^c† mmHg | −7.9 mmHg | 2.1 | 7.7 mmHg | −3.9 mmHg | 7.61 µM | 59.25 µM |  |  |
| O=Cc1ccc(CO[N+](=O)[O-])o1 [TD-1, 5-Nitrooxymethyl furfural] |  |  |  |  | 1.9 ± 0.1^c† | 27.4 ± 2.3^c† mmHg | −3.9 mmHg | 2.0 | 8.4 mmHg | −4.1 mmHg | 4.02 µM |  | only a modest decrease in the anti-sickling effect | least release |
| COc1ccc(C=O)c(OCc2cccc(CO[N+](=O)[O-])n2)c1 [TD-9-1, (6-((2-Formyl-5-methoxyphenoxy)methyl)pyridin-2-yl)methyl nitrate] |  |  |  |  | 1.9^d† | 28.6^d† mmHg | −2.7 mmHg |  |  |  |  | 78.66 µM |  |  |
| COc1ccc(C=O)cc1OCc1cccc(CO[N+](=O)[O-])n1 [TD-8-1, (6-((5-Formyl-2-methoxyphenoxy)methyl)pyridin-2-yl)methyl nitrate] |  |  |  |  | 2.1^d† | 30.8^d† mmHg | −0.5 mmHg |  |  |  |  | 102.54 µM |  | most release |
